How the values were obtained:
[1] = Aqueous solubility; type: physicochemical
[2] = molecular target: Sodium Channel, Site 2; assay: Eurofins lead profiling screen (radioligand binding); design: species or system Rat
[3] = molecular target: TREK-1 (Mus musculus, UniProt P97438); assay: Mouse manual patch clamp (MPC); type: cell-based
[4] = molecular target: Kv4.3 (Homo sapiens, UniProt Q9UK17); assay: Cardiac ion channel MPC selectivity panel; type: cell-based
[5] = Liver microsome intrinsic clearance (mouse); type: in vitro ADME; conditions: pH 7.4; mouse liver microsomes; read-out: LMS CLINT mouse
Protocol: After a 5 min preincubation, the reaction was initiated by the addition of NADPH (1 mM). At selected time intervals between 0 ~ 60 min (e.g. 0, 3, 7, 15, 25, 45 and/or 60 min), aliquots were taken and subsequently placed into a 96-well plate containing cold acetonitrile with an internal standard (50 ng/mL carbamazepine). Plates were then centrifuged at 3000 rcf (4 °C) for 10 min, and the supernatant was transferred to a separate 96-well plate and diluted 1:1 with water for LC/MS/MS analysis. The in vitro half-life (T 1/2, min, Eq. 1), intrinsic clearance (CLint, mL/min/kg, Eq. 2), and subsequent predicted hepatic clearance (CLhep, mL/min/kg, Eq. 3) were determined employing the following equations: […]
where k represents the slope from linear regression analysis of the natural log percent remaining of a test compound as a function of incubation time […]
(2) CLint = in vitroT1/2 x mg microsomes x gram liver x kg body wt ascale-up factors: of 20 (human) or 45 (rat) or 87.5 (mouse) […]
where Qh (hepatic blood flow, mL/min/kg) is 21 (human) or 70 (rat) or 90 (mouse).
LC/MS/MS Bioanalysis of Samples from Plasma Protein Binding and Intrinsic Clearance […]
Samples were analyzed on a Thermo Electron TSQ Quantum Ultra triple quad mass spectrometer (San Jose, CA) via electrospray ionization (ESI) with two Themo Electron Accella pumps (San Jose, CA), and a Leap Technologies CTC PAL autosampler (Carrboro, NC). Analytes were separated by gradient elution on a dual column system with two Thermo Hypersil Gold (2.1 x 30 mm, 1.9 µm) columns (San Jose, CA) thermostated at 40 °C. HPLC mobile phase A was 0.1% formic acid in water and mobile phase B was 0.1% formic acid in acetonitrile. The gradient started […]
for 0.2 min; returned to 10% B in 0.1 min. The total run time was 1.3 min and the HPLC flow rate was 0.8 mL/min. While pump 1 ran the gradient method, pump 2 equilibrated the alternate column isocratically at 10% B. Compound optimization, data collection, and processing were performed using Thermo Electron's QuickQuan software (v2.3) and Xcalibur (v2.0.7 SP1). […]

[6] = Plasma protein binding (rat); type: in vitro ADME; conditions: pH 7.4, read-out: PPB rat
Protocol: 0.3% DMSO - ΔRatio of 1 µM control compound)x100
In vitro Plasma protein binding and Brain homogenate binding: Determination of fraction unbound (f u) in plasma was conducted in vitro via equilibrium dialysis using HTDialysis (HTD) membrane plates. The top half of the plate was filled with 100 uL of Dubelco’s Phosphate Buffered Saline, pH 7.4 (DPBS). Compounds were diluted into plasma from each species (5 µM final concentration), which was aliquoted in triplicate to the ‘bottom half’ of the prepared HTD plate wells. The HTD plate was sealed and incubated for 6 hours at 37 °C. Following incubation, each well (both top and bottom halves) were transferred (20 µL) to the corresponding wells of a 96-shallow-well (V-bottom) plate. The daughter plates were then matrix-matched (DPBS side wells received equal volume of plasma, and plasma side wells received equal volume of DPBS), and extraction solution (120 µL; acetonitrile containing 50 nM carbamazepine as IS) was added to all wells of both daughter plates to precipitate protein and extract test article. The plates were then sealed and centrifuged (3500 rcf) for 10 minutes at ambient temperature. […]
The unbound fraction (f u) was calculated following the equation below, and mean values for each species were calculated from 3 replicates. […] Fraction unbound for both plasma and brain samples was determined using Equation 4.

[7] = molecular target: T1, Adenosine A3 (Homo sapiens, UniProt P0DMS8); assay: Eurofins lead profiling screen (radioligand binding)
T1 construct: Eurofins

[8] = molecular target: Serotonin (5-HT2B) (Homo sapiens, UniProt P41595); assay: as above
[9] = molecular target: Bradykinin B2 (Homo sapiens, UniProt P30411); assay: as above
[10] = molecular target: Calcium Channel L-Type, Benzothiazepine (Rattus norvegicus, UniProt P22002); assay: as above
[11] = molecular target: Calcium Channel L-Type, Dihydropyridine (Rattus norvegicus, UniProt P22002); assay: as above
[12] = molecular target: Muscarinic M1 (Homo sapiens, UniProt P11229); assay: as above
[13] = molecular target: Glutamate, NMDA, Glycine (Rattus norvegicus, UniProt P35439); assay: as above
[14] = molecular target: Melatonin MT1 (Homo sapiens, UniProt P48039); assay: as above
[15] = system: Glutamate, NMDA, Agonism; assay: as above; design: species or system Rat
[16] = molecular target: Adrenergic β1 (Homo sapiens, UniProt P08588); assay: as above
[17] = molecular target: Adenosine A1 (Homo sapiens, UniProt P30542); assay: as above
[18] = system: Glutamate, Kainate; assay: as above; design: species or system Rat
[19] = molecular target: Bradykinin B1 (Homo sapiens, UniProt P46663); assay: as above
[20] = molecular target: Adrenergic α2A (Homo sapiens, UniProt P08913); assay: as above

T1 sequence (P0DMS8 whole entry): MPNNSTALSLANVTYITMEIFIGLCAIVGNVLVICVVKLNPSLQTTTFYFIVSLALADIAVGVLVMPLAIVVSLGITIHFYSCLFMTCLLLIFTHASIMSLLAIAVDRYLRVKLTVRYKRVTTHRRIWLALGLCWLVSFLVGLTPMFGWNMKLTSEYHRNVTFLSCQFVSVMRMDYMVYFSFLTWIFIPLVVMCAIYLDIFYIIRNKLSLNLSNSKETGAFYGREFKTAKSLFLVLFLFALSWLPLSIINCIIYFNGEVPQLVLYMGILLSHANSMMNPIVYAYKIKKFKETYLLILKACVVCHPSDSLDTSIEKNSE
Bradykinin B2, sequence (P30411 whole entry): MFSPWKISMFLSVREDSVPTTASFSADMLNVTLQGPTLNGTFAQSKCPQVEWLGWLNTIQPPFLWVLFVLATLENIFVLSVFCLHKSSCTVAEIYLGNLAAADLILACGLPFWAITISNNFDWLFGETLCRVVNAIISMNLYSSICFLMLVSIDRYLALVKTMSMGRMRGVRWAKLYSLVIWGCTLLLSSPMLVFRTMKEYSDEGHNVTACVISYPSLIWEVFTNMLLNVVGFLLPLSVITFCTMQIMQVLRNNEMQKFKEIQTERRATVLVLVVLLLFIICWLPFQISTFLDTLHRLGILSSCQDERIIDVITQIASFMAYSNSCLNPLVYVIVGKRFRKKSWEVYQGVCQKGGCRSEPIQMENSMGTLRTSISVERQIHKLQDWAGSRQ
Muscarinic M1, sequence (P11229 whole entry): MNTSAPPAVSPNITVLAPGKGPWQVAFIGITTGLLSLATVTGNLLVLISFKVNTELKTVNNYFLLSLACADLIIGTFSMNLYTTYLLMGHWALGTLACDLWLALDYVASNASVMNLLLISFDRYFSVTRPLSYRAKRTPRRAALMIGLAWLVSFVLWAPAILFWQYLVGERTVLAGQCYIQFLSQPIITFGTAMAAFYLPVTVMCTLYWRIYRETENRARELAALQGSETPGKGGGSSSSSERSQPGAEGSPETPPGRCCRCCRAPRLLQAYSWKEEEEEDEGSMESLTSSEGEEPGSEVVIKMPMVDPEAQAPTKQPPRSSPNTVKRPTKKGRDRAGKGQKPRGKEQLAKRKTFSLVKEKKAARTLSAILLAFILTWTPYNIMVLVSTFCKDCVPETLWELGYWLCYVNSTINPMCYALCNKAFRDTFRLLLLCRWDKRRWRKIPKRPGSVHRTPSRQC
Melatonin MT1, sequence (P48039 whole entry): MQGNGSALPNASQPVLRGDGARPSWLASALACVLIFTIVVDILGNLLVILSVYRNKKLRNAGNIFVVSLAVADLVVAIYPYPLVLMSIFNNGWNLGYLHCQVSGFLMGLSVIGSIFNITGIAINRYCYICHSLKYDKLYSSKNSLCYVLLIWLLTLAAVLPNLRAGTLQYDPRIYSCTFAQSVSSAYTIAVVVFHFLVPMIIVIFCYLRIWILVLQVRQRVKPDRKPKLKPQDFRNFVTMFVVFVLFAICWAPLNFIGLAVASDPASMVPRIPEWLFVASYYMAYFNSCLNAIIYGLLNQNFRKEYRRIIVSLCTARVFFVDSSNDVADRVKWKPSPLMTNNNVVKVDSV
TREK-1, sequence (P97438 whole entry): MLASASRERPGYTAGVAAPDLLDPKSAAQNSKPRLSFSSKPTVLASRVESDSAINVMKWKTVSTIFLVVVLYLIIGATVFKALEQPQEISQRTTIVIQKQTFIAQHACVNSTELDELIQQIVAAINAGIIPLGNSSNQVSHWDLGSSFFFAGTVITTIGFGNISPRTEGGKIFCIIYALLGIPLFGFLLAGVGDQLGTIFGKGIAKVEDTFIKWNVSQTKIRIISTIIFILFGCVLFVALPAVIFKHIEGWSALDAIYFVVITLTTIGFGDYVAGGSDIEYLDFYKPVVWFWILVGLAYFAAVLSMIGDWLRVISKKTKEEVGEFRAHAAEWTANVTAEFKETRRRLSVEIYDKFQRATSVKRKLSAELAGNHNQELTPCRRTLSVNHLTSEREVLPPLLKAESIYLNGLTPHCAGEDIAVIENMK
Serotonin (5-HT2B), sequence (P41595 whole entry): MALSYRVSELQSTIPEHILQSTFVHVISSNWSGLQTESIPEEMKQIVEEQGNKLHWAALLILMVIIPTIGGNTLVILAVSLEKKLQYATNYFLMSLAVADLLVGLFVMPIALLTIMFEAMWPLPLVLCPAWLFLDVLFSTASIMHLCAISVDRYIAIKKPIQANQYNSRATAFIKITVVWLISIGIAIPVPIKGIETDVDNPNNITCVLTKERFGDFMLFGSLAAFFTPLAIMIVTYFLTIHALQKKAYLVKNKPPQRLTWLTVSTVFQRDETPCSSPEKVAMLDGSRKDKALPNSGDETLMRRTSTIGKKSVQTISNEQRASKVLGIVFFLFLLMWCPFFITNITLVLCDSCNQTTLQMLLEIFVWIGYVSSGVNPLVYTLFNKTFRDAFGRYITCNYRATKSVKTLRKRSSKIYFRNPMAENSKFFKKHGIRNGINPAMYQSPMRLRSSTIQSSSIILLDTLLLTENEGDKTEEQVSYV
Calcium Channel L-Type, Dihydropyridine, sequence (P22002 whole entry): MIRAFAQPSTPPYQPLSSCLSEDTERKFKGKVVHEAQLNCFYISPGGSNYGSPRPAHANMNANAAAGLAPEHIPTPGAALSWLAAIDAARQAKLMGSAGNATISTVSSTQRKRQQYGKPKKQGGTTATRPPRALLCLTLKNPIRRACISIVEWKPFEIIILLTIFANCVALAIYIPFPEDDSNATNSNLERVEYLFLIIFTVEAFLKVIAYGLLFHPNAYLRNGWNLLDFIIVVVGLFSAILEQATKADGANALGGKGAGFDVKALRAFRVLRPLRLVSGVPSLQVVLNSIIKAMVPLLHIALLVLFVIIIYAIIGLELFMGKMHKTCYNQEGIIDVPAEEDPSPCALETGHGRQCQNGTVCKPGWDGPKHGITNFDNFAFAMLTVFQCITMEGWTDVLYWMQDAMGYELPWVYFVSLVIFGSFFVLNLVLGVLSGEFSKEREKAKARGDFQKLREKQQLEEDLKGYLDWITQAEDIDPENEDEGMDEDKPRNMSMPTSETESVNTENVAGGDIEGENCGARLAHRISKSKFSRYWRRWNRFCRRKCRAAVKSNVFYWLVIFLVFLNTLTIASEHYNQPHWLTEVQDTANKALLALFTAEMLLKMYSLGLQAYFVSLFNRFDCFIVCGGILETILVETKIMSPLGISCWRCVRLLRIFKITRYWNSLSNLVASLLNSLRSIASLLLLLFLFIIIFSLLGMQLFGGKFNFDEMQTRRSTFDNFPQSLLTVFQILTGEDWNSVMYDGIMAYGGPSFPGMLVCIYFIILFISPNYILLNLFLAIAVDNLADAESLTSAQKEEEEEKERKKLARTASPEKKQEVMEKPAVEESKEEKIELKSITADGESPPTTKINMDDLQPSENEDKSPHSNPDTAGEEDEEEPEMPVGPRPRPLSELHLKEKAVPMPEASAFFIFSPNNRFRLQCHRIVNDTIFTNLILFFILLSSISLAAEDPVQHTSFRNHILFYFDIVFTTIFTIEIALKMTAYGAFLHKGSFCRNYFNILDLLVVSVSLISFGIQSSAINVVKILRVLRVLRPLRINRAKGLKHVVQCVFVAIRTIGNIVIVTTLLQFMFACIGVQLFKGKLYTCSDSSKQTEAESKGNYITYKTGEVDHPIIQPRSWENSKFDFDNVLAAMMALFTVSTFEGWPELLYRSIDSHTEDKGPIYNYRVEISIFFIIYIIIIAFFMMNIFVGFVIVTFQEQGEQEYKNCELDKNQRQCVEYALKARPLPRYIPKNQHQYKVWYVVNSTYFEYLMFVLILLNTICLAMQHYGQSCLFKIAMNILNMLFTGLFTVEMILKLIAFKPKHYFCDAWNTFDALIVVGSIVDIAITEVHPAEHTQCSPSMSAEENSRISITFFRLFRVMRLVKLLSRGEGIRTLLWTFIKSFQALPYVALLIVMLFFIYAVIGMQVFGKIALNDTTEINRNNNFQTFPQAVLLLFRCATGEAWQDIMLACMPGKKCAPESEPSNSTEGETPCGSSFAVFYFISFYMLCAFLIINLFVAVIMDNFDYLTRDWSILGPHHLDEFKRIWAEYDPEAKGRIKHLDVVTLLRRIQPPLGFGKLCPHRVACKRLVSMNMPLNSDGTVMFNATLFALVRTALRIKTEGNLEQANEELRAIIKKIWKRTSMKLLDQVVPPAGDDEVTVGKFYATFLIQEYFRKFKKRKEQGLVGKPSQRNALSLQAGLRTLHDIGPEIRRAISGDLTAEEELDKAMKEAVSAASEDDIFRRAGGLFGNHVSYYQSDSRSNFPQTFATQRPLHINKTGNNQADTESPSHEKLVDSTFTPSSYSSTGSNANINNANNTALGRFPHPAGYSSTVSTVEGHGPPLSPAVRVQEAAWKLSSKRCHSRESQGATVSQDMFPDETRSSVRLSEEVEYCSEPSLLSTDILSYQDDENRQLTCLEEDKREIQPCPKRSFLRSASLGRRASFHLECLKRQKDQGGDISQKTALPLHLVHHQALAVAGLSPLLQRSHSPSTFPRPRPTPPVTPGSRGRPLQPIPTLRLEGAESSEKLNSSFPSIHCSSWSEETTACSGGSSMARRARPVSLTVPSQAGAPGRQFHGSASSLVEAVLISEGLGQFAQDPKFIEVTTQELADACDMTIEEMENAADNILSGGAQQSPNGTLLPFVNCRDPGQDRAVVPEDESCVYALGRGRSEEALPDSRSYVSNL
Calcium Channel L-Type, Benzothiazepine, sequence (P22002 whole entry): as above
Adenosine A1, sequence (P30542 whole entry): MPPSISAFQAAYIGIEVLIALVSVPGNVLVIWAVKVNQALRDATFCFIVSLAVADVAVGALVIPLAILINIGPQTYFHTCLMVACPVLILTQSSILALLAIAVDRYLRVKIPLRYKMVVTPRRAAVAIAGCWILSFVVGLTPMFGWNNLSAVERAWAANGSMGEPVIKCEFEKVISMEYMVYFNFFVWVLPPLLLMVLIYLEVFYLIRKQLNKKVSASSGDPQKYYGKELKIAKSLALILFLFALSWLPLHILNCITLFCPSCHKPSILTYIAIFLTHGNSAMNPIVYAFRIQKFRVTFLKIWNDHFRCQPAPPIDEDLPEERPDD

SMILES: Cc1cc(C#Cc2ccc(F)cc2)cnc1NC(=O)c1cc(NC(=O)OC(C)(C)C)ccc1Cl [Compound 14c]
- solubility [1]: < 5 µM
- Ki [2]: 650 nM
- IC50 [3]: 67 nM
- % at 10 μM, Kv4.3 [4]: < 50%
- CLint scaled at 1 µM [5]: 13 mL/min/kg
- fraction unbound at 6 h, 5 µM [6]: 0.001
- Ki [7]: 480 nM

SMILES: O=C(NCc1ccc(OC(F)(F)F)cc1F)c1ccc2ncnn2c1 [ONO-2920632]
- inhibition at 10 µM [8]: 31%
- % Inhibition at 10 µM ([2]; 10 µM): 84%
- inhibition at 10 µM [9]: -10%
- inhibition at 10 µM [10]: 56%
- inhibition at 10 µM [11]: 76%
- inhibition at 10 µM [12]: 4%
- inhibition at 10 µM [13]: -6%
- inhibition at 10 µM [14]: 29%
- % Inhibition at 10 µM [15]: 2%
- inhibition at 10 µM [16]: -1%
- inhibition at 10 µM [17]: 2%
- % Inhibition at 10 µM [18]: 3%
- inhibition at 10 µM [7]: 84%
- inhibition at 10 µM [19]: 27%
- inhibition at 10 µM [20]: 36%

From PMC12067145 (ACS Medicinal Chemistry Letters, 2025)
